Laboratory results published in US20100324279A1, “CRYSTAL FORMS OF 2-[2-(4-CHLOROPHENYL)ETHOXY]ADENOSINE” (priority 2007, published 2010).
Converted amounts (≈) assume the structure as drawn.

What was measured:
[1] = Approximate solubilities of A-type crystals of MRE-0094 in test solvents; format: physicochemical; details: thermodynamic from solid
Experimental: Weighed samples of MRE-0094 (typically 30-60 mg) are treated with aliquots of the test solvent. Solvents are either reagent or HPLC grade. The aliquots are usually 200 μL or 500 μL. Between additions the mixtures are sonicated. […] Note that actual solubilities may be greater than those calculated due to the volume of the solvent aliquots or to a slow rate of dissolution. […] The solubilities are reported to the nearest mg/mL.

[2] = Moisture sorption/desorption analysis; format: physicochemical; details: for Solid material after moisture sorption identified by XRPD: after sorption/desorption 5 to 95% RH; for Moisture sorption: total weight gain: between 5% and 95% relative humidity (RH); for Hygroscopicity based on the moisture sorption data: exposed to high relative humidity; for Weight lost upon desorption: after sorption to 95% RH
Experimental: Moisture sorption/desorption analyses may be performed, e.g., on a VTI SGA-100 Vapor Sorption Analyzer Sorption and desorption data are collected, e.g., over a range of 5 to 95% relative humidity (RH) at 10% RH intervals under a nitrogen purge. Samples need not to be dried prior to analysis. Equilibrium criteria used for analysis are, e.g., less than 0.01% weight change in 5 min, with a maximum equilibration time of 3 h if the weight criterion is not met NaCl and PVP may used as calibration standards.

[3] = Heat stress studies and variable temperature XRPD; format: physicochemical
Experimental: For heat stress studies, samples of MRE-0094 A-type crystals are heated isothermally at different temperatures to investigate the effect of temperatures on solid state conversions. The samples are heated for up to 15 min. The solid material is allowed to cool before analyzing by XRPD.
(2 min). Variable temperature XRPD (VT-XRPD) may be performed on A-type crystals of MRE-0094 to better understand its thermal behavior. […] The sample remains as B-type crystals up to 165° C. […] It is likely that the melting of B-type crystals, subsequent recrystallization, and final melting of the solid occurs too fast to be captured by VT-XRPD. Based on the VT-XRPD data, the thermal events observed by DSC at approximately 117° C. and 126° C. are due to the solid conversion followed by the subsequent recrystallization to form B-type crystals.

[4] = Approximate solubilities of A-type crystals of MRE-0094 in test solvents; format: physicochemical; details: organic solvent or mixture, thermodynamic from solid; PG, RT; agitated two days, calculated from difference between starting and ending weights
[5] = Desolvation/dehydration studies under various drying conditions (XRPD); format: physicochemical; details: for Solid form after exposure to ambient conditions: eight days
Experimental: Desolvation studies under various conditions may be performed to investigate the effects of drying conditions on the C-type crystals. […] However, the anhydrous form to which C-type crystals convert may be dependent on the drying conditions and temperature.
Desolvation studies under various conditions may be conducted to investigate the effects of drying conditions on F-type crystals.
Dehydration studies under various conditions are performed to investigate the effects of drying conditions on the I-type crystals.

[6] = Stability to mechanical grinding/milling followed by vapor stress (XRPD); format: physicochemical; details: ball-milling, then about 97% relative humidity, K2SO4 humidity jar, 1 day
From the text: Stability to grinding may be assessed by measurement of an appropriate physical property before and after grinding. Where the physical property remains substantially unchanged substantial stability to grinding is indicated. Suitable physico-chemical properties for measurement include a melting point or DSC analysis, a X-ray diffraction pattern, an infrared absorption spectrum and a Raman spectrum, particularly the X-ray diffraction pattern.
Stability to mechanical grinding/milling may be tested, e.g., by employing a small stainless steel cylinder The cylinder is charged with a weighted amount of a crystal form of MRE-0094 and a stainless steel ball is added, the cylinder is capped and the unit is placed on a Retsch Mixer Mill (Type MM 200) for a total of 30 min at a frequency of 30/s (ball-milling).

[7] = tested on: neuropathic, diabetic foot ulcers (DFU); assay: Phase I study of topical MRE-0094 gel: wound closure; format: in vivo; details: DFU patients; for % Wound Closure (Day 28): topically once daily for 28 days; for Median Number of Days to: 50% Closure / Median Number of Days to: 75% Closure: topically once daily
Experimental: (§1) MRE-0094 is administered to patients with neuropathic, diabetic foot ulcers (DFU). Patients 18-80 years old are randomized in a 1:3 ratio to a standard DFU care and a vehicle gel, or a standard DFU care and a gel containing MRE-0094 as described herein above. Standard care include routine sharp debridement, pressure offloading, and maintaining a moist wound environment. Inclusion criteria includes full thickness wounds between 1 and 10 cm^2 in area. Exclusion criteria includes arterial insufficiency, renal or hepatic insufficiency, active infection, or osteomyelitis. Patients are enrolled into 3 groups, and receive drug at an escalating concentration by group of 5 μg/g, 50 μg/g, or 500 μg/g. Safety data are reviewed by an independent safety board prior to escalating dose. Drug or vehicle is applied topically once daily for 28 days. Outcome measures include adverse events and other safety assessments, plasma concentrations of the active agent MRE-0094, percent of wound closure, and rate of wound closure. Thirty-six patients are randomized (25 active agent, 11 vehicle gel, i.e., placebo) with an average age of 54.8 years, 78% are male.

[8] = Phase I study: plasma concentrations of MRE-0094 (systemic absorption); format: in vivo, patients; details: any topical dose concentration (5, 50, 500 μg/g gel)
Experimental: as §1

diabetic ulcers = details: healthy BALB/C mice; cited from earlier work

## Nc1nc(OCCc2ccc(Cl)cc2)nc2c1ncn2[C@@H]1O[C@H](CO)[C@@H](O)[C@H]1O [A-type crystal form, 2-[2-(4-chlorophenyl)ethoxy]adenosine]
[1]; aqueous with cosolvent or surfactant or cyclodextrin, EtOH:water - 1:1, RT
  solubility: 9000 µg/mL (≈ 21.3 mM)
[1]; aqueous with cosolvent or surfactant or cyclodextrin, water:PG - 1:1, RT
  solubility: 6000 µg/mL (≈ 14.2 mM)
[1]; organic solvent or mixture, 1,4-dioxane, RT
  solubility: 17000 µg/mL (≈ 40.3 mM)
[1]; organic solvent or mixture, ACN, RT
  solubility: < 3000 µg/mL
[1]; organic solvent or mixture, DCM, RT
  solubility: < 2000 µg/mL
[1]; organic solvent or mixture, DMF, RT
  solubility: 179000 µg/mL (≈ 424 mM)
[1]; organic solvent or mixture, EtOAc, RT
  solubility: < 4000 µg/mL
[1]; organic solvent or mixture, EtOH, RT
  solubility: 7000 µg/mL (≈ 16.6 mM)
[1]; organic solvent or mixture, EtOH:water - 19:1, RT
  solubility: 12000 µg/mL (≈ 28.4 mM)
[1]; organic solvent or mixture, IPA, RT
  solubility: 4000 µg/mL (≈ 9.48 mM)
[1]; organic solvent or mixture, MEK, RT
  solubility: 4000 µg/mL (≈ 9.48 mM)
[1]; organic solvent or mixture, MeOH, RT
  solubility: 4000 µg/mL (≈ 9.48 mM)
[1]; organic solvent or mixture, TFE, RT
  solubility: 11000 µg/mL (≈ 26.1 mM)
[1]; organic solvent or mixture, THF, RT
  solubility: 23000 µg/mL (≈ 54.5 mM)
[1]; organic solvent or mixture, acetone, RT
  solubility: 5000 µg/mL (≈ 11.9 mM)
[1]; organic solvent or mixture, heptane, RT
  solubility: < 4000 µg/mL
[1]; organic solvent or mixture, toluene, RT
  solubility: < 4000 µg/mL
[1]; water, RT
  solubility: < 300 µg/mL
[2]
  Solid material after moisture sorption identified by XRPD: A-type crystal form
  Moisture sorption: total weight gain: approximately 4.3%
  Hygroscopicity based on the moisture sorption data: hygroscopic
[2]; between 5 and 55% RH
  Moisture sorption: weight gain: approximately 0.3%
[2]; between 55% and 95% RH
  Moisture sorption: additional weight gain: 4.0%
[3]; isothermal heating, 2 min
  Temperature of solid form conversion in heat stress studies: approximately 164 °C
[3]; variable temperature XRPD
  Temperature of conversion to B-type crystal form (VT-XRPD): 120 °C
  Temperature up to which the crystal form remains as such (VT-XRPD): up to 115 °C
[4]
  solubility at 2 days: < 71 mg/mL

## Nc1nc(OCCc2ccc(Cl)cc2)nc2c1ncn2[C@@H]1O[C@H](CO)[C@@H](O)[C@H]1O [B-type crystal form, 2-[2-(4-chlorophenyl)ethoxy]adenosine]
[2]
  Weight lost upon desorption: Approximately 3.7%
  Solid material after moisture sorption identified by XRPD: B-type crystal form
  Moisture sorption: total weight gain: approximately 3.9%
  Hygroscopicity based on the moisture sorption data: hygroscopic

## Nc1nc(OCCc2ccc(Cl)cc2)nc2c1ncn2[C@@H]1O[C@H](CO)[C@@H](O)[C@H]1O [C-type crystal form, 2-[2-(4-chlorophenyl)ethoxy]adenosine]
[5]
  Solid form after exposure to ambient conditions: does not completely convert to A-type crystals
[5]; heated at 60° C. for eight days or dried in vacuo for six days
  Solid form after desolvation: convert to A-type crystal form

## Nc1nc(OCCc2ccc(Cl)cc2)nc2c1ncn2[C@@H]1O[C@H](CO)[C@@H](O)[C@H]1O [F-type crystal form, 2-[2-(4-chlorophenyl)ethoxy]adenosine]
[5]; listed as F-type crystals
  Solid form after exposure to ambient conditions: Amorphous/low crystalline material
[5]; vacuum oven and 60° C.
  Solid form after desolvation: low crystalline mixture of A-type and B-type crystals

## Nc1nc(OCCc2ccc(Cl)cc2)nc2c1ncn2[C@@H]1O[C@H](CO)[C@@H](O)[C@H]1O [G-type crystal form, 2-[2-(4-chlorophenyl)ethoxy]adenosine]
[2]
  Weight lost upon desorption: Approximately 2.2%
  Solid material after moisture sorption identified by XRPD: G-type crystal form
  Moisture sorption: total weight gain: approximately 2.4%
  Hygroscopicity based on the moisture sorption data: hygroscopic
[6]
  Stability to mechanical milling followed by vapor stress: substantially stable

## Nc1nc(OCCc2ccc(Cl)cc2)nc2c1ncn2[C@@H]1O[C@H](CO)[C@@H](O)[C@H]1O [I-type crystal form, 2-[2-(4-chlorophenyl)ethoxy]adenosine]
[5]; various drying conditions
  Solid form after dehydration: either B-type, or a mixture of A-type and B-type crystals

## Nc1nc(OCCc2ccc(Cl)cc2)nc2c1ncn2[C@@H]1O[C@H](CO)[C@@H](O)[C@H]1O [MRE-0094, 2-[2-(4-chlorophenyl)ethoxy]adenosine]
[7]; 5 μg/g gel
  % Wound Closure (Day 28): 60.7%
  Median Number of Days to: 50% Closure: 8 days
  Median Number of Days to: 75% Closure: 14 days
[7]; 50 μg/g gel
  % Wound Closure (Day 28): 67.5%
  Median Number of Days to: 50% Closure: 12 days
  Median Number of Days to: 75% Closure: 28 days
[7]; 500 μg/g gel
  % Wound Closure (Day 28): 35.4%
  Median Number of Days to: 50% Closure: 14 days
  Median Number of Days to: 75% Closure: 36 days
[8]
  Systemic absorption of MRE-0094: No systemic absorption
Diabetic ulcers
  Wound healing of diabetic ulcers: promote wound healing
